Data set [1] is described as follows: Aqueous solubility of the compound in PBS at pH 1.2. The data set is classed as physicochemical.
Data set [2] is described as follows: Aqueous solubility of the compound in PBS at pH 7.4. It is filed as physicochemical.
Data set [3] can be described thus: Apparent intrinsic clearance in human liver microsomes. The data set is classed as ADME, Microsome. As to conditions: read-out: CLH(app).

Each structure is given as a SMILES string. Values after ≈ are worked out from the molar mass of the structure shown.

By solubility is commonly meant the dissolved amount per volume that the medium holds. Lower therefore signals little dissolved substance.

For the molecule `Cc1ncccc1Oc1ncnc(N2C3CC4CC2CC(C3)N4C(=O)OC2(C)CC2)c1C`, the solubility came to 6800 µg/mL (≈ 15.6 mM) in data set [1] and 0.5 µg/mL (≈ 0.00115 mM) in data set [2].

For `CC[C@@H](C)OC(=O)N1C2CC3CC1CC(C2)N3c1ncnc(Oc2cccnc2C)c1C`, in data set [3], the CLint scaled is more than 30 mL/min/kg.

In the case of `Cc1ncccc1Oc1ncnc(N2C3CC4CC2CC(C3)N4C(=O)OCC(C)C)c1C`, the CLint scaled in data set [3] was more than 30 mL/min/kg.

The record behind these values is ChEMBL document CHEMBL2311407, “Design and synthesis of diazatricyclodecane agonists of the G-protein-coupled receptor 119” (J Med Chem, 2013).
